# Columns and labels:
# [1] = target: Neuropilin-1 (Homo sapiens) (UniProt O14786); assay: Inhibition of [125I]-VEGF-A165 binding to NRP1 (unknown origin) transfected in HUVECs incubated for 2 hrs by plate reader analysis
# [2] = target: Cyclin-dependent kinase 4/Cyclin D1; assay: Inhibition of CDK4/Cyclin D1 (unknown origin)
# Chain of Neuropilin-1 (Homo sapiens) (O14786 whole entry, looked up): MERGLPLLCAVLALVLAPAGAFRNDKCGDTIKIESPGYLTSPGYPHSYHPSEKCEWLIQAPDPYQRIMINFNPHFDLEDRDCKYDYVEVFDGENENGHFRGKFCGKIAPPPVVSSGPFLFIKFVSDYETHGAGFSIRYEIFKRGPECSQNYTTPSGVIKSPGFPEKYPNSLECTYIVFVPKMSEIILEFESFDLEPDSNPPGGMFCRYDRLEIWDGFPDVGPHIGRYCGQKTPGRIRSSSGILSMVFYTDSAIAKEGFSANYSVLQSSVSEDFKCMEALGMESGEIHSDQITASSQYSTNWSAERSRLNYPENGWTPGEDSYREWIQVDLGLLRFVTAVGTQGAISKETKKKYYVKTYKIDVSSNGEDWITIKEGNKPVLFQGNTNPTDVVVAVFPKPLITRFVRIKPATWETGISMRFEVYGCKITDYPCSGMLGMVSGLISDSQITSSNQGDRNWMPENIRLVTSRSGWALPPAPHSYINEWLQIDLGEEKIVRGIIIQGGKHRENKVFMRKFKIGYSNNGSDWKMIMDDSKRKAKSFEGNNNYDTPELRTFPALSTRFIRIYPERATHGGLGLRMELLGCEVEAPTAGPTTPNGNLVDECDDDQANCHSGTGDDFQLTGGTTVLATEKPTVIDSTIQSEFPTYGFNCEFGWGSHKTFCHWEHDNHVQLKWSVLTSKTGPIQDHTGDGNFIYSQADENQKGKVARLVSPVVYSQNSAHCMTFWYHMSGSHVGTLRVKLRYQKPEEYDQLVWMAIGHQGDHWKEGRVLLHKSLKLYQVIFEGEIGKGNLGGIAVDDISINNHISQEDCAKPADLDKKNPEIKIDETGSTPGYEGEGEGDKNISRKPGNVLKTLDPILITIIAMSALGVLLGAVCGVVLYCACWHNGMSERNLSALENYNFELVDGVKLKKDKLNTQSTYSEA
SMILES,IC50 [1],IC50 [2]
COc1ccc(/C=C\c2cc(OC)c(OC)c(OC)c2)cc1NC(=O)CCCCC(=O)N[C@@H](CCCNC(=N)N)C(=O)O,8.94 µM,–
COc1ccc(/C=C\c2cc(OC)c(OC)c(OC)c2)cc1NC(=O)/C=C/C(=O)N[C@@H](CCCNC(=N)N)C(=O)O,3.91 µM,–
COc1ccc(/C=C\c2cc(OC)c(OC)c(OC)c2)cc1NC(=O)CCC(=O)N[C@@H](CCCNC(=N)N)C(=O)O,0.85 µM,> 10 µM
"NC(N)=NCCC[C@H](NC(=O)c1sccc1NS(=O)(=O)c1cccc2nsnc12)C(=O)O [(S)-2-(3-(benzo[c][1,2,5]thiadiazole-4-sulfonamido)thiophene-2-carboxamido)-5-guanidinopentanoic acid]",2.91 µM,–
COc1ccc(/C=C\c2cc(OC)c(OC)c(OC)c2)cc1NC(=O)CCCC(=O)N[C@@H](CCCNC(=N)N)C(=O)O,6.33 µM,–
COc1ccc(/C=C\c2cc(OC)c(OC)c(OC)c2)cc1NC(=O)CCCCCCC(=O)N[C@@H](CCCNC(=N)N)C(=O)O,15 µM,–

# From BindingDB's records for doi:10.1021/acs.jmedchem.3c01572 (China Pharmaceutical University, 2023)
